Measured values reported in US12351606B2, “Compositions and related methods for modulating transcriptional activation by incorporating gag motifs upstream of core promoter elements” (UNIVERSITY OF VIRGINIA PATENT FOUNDATION, priority 2007, dated 2025).

How the values were obtained:
BY-2 cells = assay: GUS reporter activity of tetramer promoter constructs in transformed BY-2 cells with or without MeJA; assay type: cell-based, N. tabacum; conditions: tetramer upstream of minimal CaMV 35S -46 promoter
Description: Promoter constructs were produced by annealing phosphorylated upper- and lower-strand oligonucleotides to create various elements containing a SpeI restriction site at the 5′ end and an XbaI restriction site at the 3′ end. These were introduced into MS23-β-glucuronidase (“GUS”) between the SpeI and XbaI sites.
Ten colonies of transformed Agrobacteria (A. tumefaciens) containing the promoter construct were picked from a fresh plate and inoculated into 10 ml YEB, containing 50 mg/l rifampicin and 50 mg/l kanamycin, in a 50 ml flask. Cell cultures were incubated overnight at 28° C. with shaking, an overnight culture (1 ml) was taken. Cultures were diluted with YEB plus antibiotics so that the OD600 was approximately 0.3. Agrobacteria were grown at 28° C. with shaking until the OD600 was about 0.6. Cells were pelleted by centrifugation. Supernatants were removed and agrobacteria were resuspended in 0.5 ml MS. Approximately 3 ml of wild type BY-2 cells were introduced into Petri dishes. Approximately 100 μl of undiluted Agrobacteria or 1:10 or 1:100 diluted agrobacteria were mixed with the BY-2 cells to infect them. After 2 days, the BY-2 cells were washed with 30 ml MS medium and left for 30 min before the supernatant was removed. Approximately 2 ml aliquots of the transformed BY-2 cells were deposited onto MS plates containing vitamins, 50 mg/l kanamycin, and 500 mg/l cefotaxin. Transformed calli were visible after 3-5 weeks.
Single transformed calli were picked from selection plates and put on fresh MS+agar plates containing vitamins, 50 mg/l kanamycin, and 500 mg/l cefotaxin. Additionally, small amounts of calli were deposited into micro-wells (Corning 6 well culture cluster) with 6 ml MS medium containing vitamins, kanamycin, and cefotaxin. Samples in the micro-wells were grown at 28° C. for 4 days with shaking. Approximately 1 ml cells from the micro-wells were subcultured to new micro-wells with 5 ml fresh MS medium with vitamins, 50 mg/l kanamycin, and 500 mg/l cefotaxin. BY-2 cells were grown at 28° C. for 3 days with shaking. Then ten independent lines were chosen and 0.4 ml cells from each of the liquid cultures were subcultured to a 250 ml Erlenmeyer flask with 45 ml MS medium, vitamins, 50 mg/l kanamycin, and 500 mg/l cefotaxin. Cells were grown at 28° C. for 2 days with shaking. Then 10 ml cells from each flask were introduced into new 250 ml Erlenmeyer flasks with 40 ml MS medium containing vitamins without hormones (−2.4D) and antibiotics. The BY-2 cells were grown at 28° C. for 1 day with shaking. After 1 day BY-2 cells were treated with different amounts of methyl jasmonate (MeJA).
(§1) Histochemical staining for GUS activity and GUS activity determination was performed as described by Jefferson (1987).
An improved method for the analysis of promoter activity in BY-2 cells was developed. Transformed BY-2 calli were grown on selection plates and subsequently grown as liquid cultures in MS medium. For each individual construct ten independent lines were chosen. Approximately 0.5 ml cells from each of the liquid cultures were subcultured together in MS medium that contain vitamins, kanamycin, and cefotaxin. After 2 days, the cells were diluted in fresh MS medium containing vitamins without hormones (−2.4D) to reduce any stress response induced by cell density, and to deplete the medium of auxin. It has been shown previously that high auxin levels in the medium decreased the extent of MeJA-induced NtPMT:GUS expression (Xu and Timko, 2004). After 1 day BY-2 cells were treated with 100 μM MeJA. After 48 hours cell samples were taken, and were used to determine the GUS activity. For statistical analysis, each experiment was repeated four times and to avoid day to day variation in the GUS activities, and the data were normalized. These cell culture conditions ensured both a rapid and uniform response to MeJA.

tobacco plants = assay: Histochemical GUS staining of transgenic tobacco plants after wounding or MeJA; assay type: in vivo, N. tabacum; conditions: tetramer constructs, GUS staining after 72 hours
Description: as §1
Ten colonies of the transformed Agrobacteria containing a promoter construct of interest were picked from a fresh plate and inoculated into 10 ml YEB, containing 50 mg/l rifampicin, and 50 mg/l kanamycin, in a 50 ml flask. Cell cultures were incubated overnight at 28° C. with shaking. Approximately 1 ml of overnight culture was taken. Cultures were diluted with 50 ml YEB plus antibiotics so that the OD600 was approximately 0.3. Agrobacteria were grown at 28° C. with shaking until the OD600 was approximately 0.6. The cells were then pelleted by centrifugation. Supernatants were removed and Agrobacteria were resuspended in 40 ml fresh YEB by pipetting with a 1 ml tip. Wild type tobacco leaves were cut into small pieces under sterile conditions and put in a 50 ml beaker. Agrobacteria solution was poured onto the tobacco leaves and the mixture was swirled together and left for 5 min for the Agrobacteria to infect the leaves. Infected leaves were put on MS plates with filter paper (to limit Agrobacteria grow). […] Plates were left for 2 days in the dark. After 2 days the tobacco pieces were transferred onto MS plates containing 1 mg/l 6 BA, 500 mg/l cefotaxin and 100 mg/l kanamycin. Samples were left in the light at 28° C. […]

Row | Molecule | promoter activity / promoter strength (BY-2 cells) | response of GUS expression to MeJA treatment (BY-2 cells; 100 μM MeJA, 48 hours) | MeJA inducibility of GUS expression (relative fold inducibility) (BY-2 cells; 100 μM MeJA, 48 hours) | MeJA-inducible expression in roots (tobacco plants; 25 μM MeJA) | wound-inducible expression in roots (tobacco plants; wounding of roots or leaves)
1 | AT-rich element: SEQ ID NO:3; tetramer in front of minimal CaMV 35S -46 promoter (DNA TAATGAATTTTTAACTATTATATTATAT; expressed or natural sequence; listed as Nicotiana tabacum) | only low level promoter activity | characteristic reduction in promoter activity after MeJA addition |  |  | 
2 | G Box-like element: SEQ ID NO:2 (GCACGTTG); tetramer in front of minimal CaMV 35S -46 promoter (expressed or natural sequence; listed as Nicotiana tabacum) | Low promoter activity | characteristic reduction after MeJA exposure |  |  | 
3 | GCC-like box: SEQ ID NO:4; tetramer in front of minimal CaMV 35S -46 promoter (DNA TGCGCCCTCCACTCCTCGGTGTCCA; expressed or natural sequence; listed as Nicotiana tabacum) | only low level promoter activity | characteristic reduction in every line tested after MeJA addition |  |  | 
4 | GAG motif: SEQ ID NO:1 regulatory region of NtPMT1a promoter: G-box like, AT-rich and GCC-like box elements; tested as tetramer before CaMV 35S -46::GUS (nucleic acid, listed as Nicotiana tabacum, expressed or natural sequence, tested as tetramer before CaMV 35S -46::GUS) DNA: CTAACCCTGCACGTTGTAATGAATTTTTAACTATTATATTATATCGAGTTGCGCCCTCCACTCCTCGGTGTCCA | much stronger than the G Box-GCC element |  | approximately 35 fold | showed inducibility by MeJA | can direct wound-inducible expression
